Patent publication US7227043B2, “2-phenyl-2-substituted-1,3-diketones” (Bayer CropScience Ag, priority 2002, dated 2007)

How the values were obtained:
Format in all cases: in vivo
Venturia inaequalis = experiment: Venturia test (apple)/protective; details: protective, 10 days after inoculation; for % efficacy: 100 g/ha
Experimental: (§1) Venturia Test (Apple)/Protective […] To produce a suitable preparation of active compound, 1 part by weight of active compound is mixed with the stated amounts of solvent and emulsifier, and the concentrate is diluted with water to the desired concentration. To test for protective activity, young plants are sprayed with the preparation of active compound at the stated application rate. After the spray coating has dried on, the plants are inoculated with an aqueous conidia suspension of the apple scab pathogen Venturia inaequalis and then remain in an incubation cabin at about 20° C. and 100% relative atmospheric humidity for 1 day.

[1] = system: peach aphid (Myzus persicae); experiment: Myzus test; details: 500 ppm, cabbage leaves dipped
Experimental: Myzus Test • Solvent: 7 parts by weight of dimethylformamide • Emulsifier: 2 parts by weight of alkylaryl polyglycol ether To produce a suitable preparation of active compound, 1 part by weight of active compound is mixed with the stated amounts of solvent and emulsifier, and the concentrate is diluted with emulsifier-containing water to the desired concentration. Cabbage leaves (Brassica oleracea) which are heavily infested by the peach aphid (Myzus persicae) are treated by being dipped into the preparation of active compound of the desired concentration. After the desired period of time, the kill in % is determined. 100% means that all aphids have been killed; 0% means that none of the aphids have been killed.

Sugar beet = experiment: Pre-emergence test, sugar beet; details: 250 g of ai/ha, after three weeks, 100% = total destruction
Experimental: (§2) • Solvent: 5 parts by weight of acetone • Emulsifier: 1 part by weight of alkylaryl polyglycol ether
(§3) To produce a suitable preparation of active compound, 1 part by weight of active compound is mixed with the stated amount of solvent, the stated amount of emulsifier is added and the concentrate is diluted with water to the desired concentration.
(§4) Seeds of the test plants are sown in normal soil. After about 24 hours, the soil is sprayed with the preparation of active compounds such that the particular amounts of active compound desired are applied per unit area. The concentration of the spray liquor is chosen such that the particular amounts of active compound desired are applied in 1000 l of water/ha.
(§5) After three weeks, the degree of damage to the plants is rated in % damage in comparison to the development of the untreated control.
(§6) The figures denote: • 0%=no effect (like untreated control) • 100%=total destruction

[2] = system: larvae of the mustard beetle (Phaedon cochleariae); experiment: Phaedon larvae test; details: 500 ppm, cabbage leaves dipped
Experimental: (§7) Phaedon larvae Test • Solvent: 7 parts by weight of dimethylformamide • Emulsifier: 2 parts by weight of alkylaryl polyglycol ether To produce a suitable preparation of active compound, 1 part by weight of active compound is mixed with the stated amounts of solvent and emulsifier, and the concentrate is diluted with emulsifier-containing water to the desired concentration. Cabbage leaves (Brassica oleracea) are treated by being dipped into the preparation of active compound of the desired concentration and are populated with larvae of the mustard beetle (Phaedon cochleariae) while the leaves are still moist. After the desired period of time, the kill in % is determined. 100% means that all beetle larvae have been killed; 0% means that none of the beetle larvae have been killed.

Plasmopara viticola = experiment: Plasmopara test (grapevine)/protective; details: 144 h, protective, 6 days after inoculation, read-out: % efficacy
Experimental: as §1, with “Plasmopara” for “Venturia”, “(Grapevine)/Protective” for “(Apple)/Protective”, “spore” for “conidia”, “Plasmopara viticola” for “the apple scab pathogen Venturia inaequalis”, “day. […] The plants are then moistened and placed in an incubation cabin for 1 day.” for “day.”

Setaria = experiment: Pre-emergence test, Setaria; details: 250 g of ai/ha, after three weeks, 100% = total destruction
Experimental: as §2, §3, §4, §5, §6

Tetranychus urticae = experiment: Tetranychus test (OP-resistant/dip treatment); details: 100 ppm, bean plants dipped, OP-resistant
Experimental: Tetranychus Test (OP-Resistant/Dip Treatment)
• Solvent: 7 parts by weight of dimethylformamide • Emulsifier: 2 parts by weight of alkylaryl polyglycol ether
To produce a suitable preparation of active compound, 1 part by weight of active compound is mixed with the stated amounts of solvent and emulsifier, and the concentrate is diluted with emulsifier-containing water to the desired concentration.
Bean plants (Phaseolus vulgaris) which are heavily infested by all stages of the greenhouse […] spider mite (Tetranychus urticae) are dipped into a preparation of active compound of the desired concentration.
After the desired period of time, the effect in % is determined. 100% means that all spider mites have been killed; 0% means that none of the spider mites have been killed.

Botrytis cinerea = experiment: Botrytis test (bean)/protective; details: 48 h, protective, 2 days after inoculation, read-out: % efficacy
Experimental: Botrytis Test (Bean)/Protective
• Solvents: 24.5 parts by weight of acetone • 24.5 parts by weight of dimethylacetamide • Emulsifier: 1.0 part by weight of alkylaryl polyglycol ether
To produce a suitable preparation of active compound, 1 part by weight of active compound is mixed with the stated amounts of solvent and emulsifier, and the concentrate is diluted with water to the desired concentration.
To test for protective activity, young plants are sprayed with the preparation of active compound at the stated application rate. After the spray coating has dried on, 2 small pieces of agar colonized by Botrytis cinerea are placed on each leaf. The inoculated plants are placed in a dark chamber at about 20° C. and 100% relative atmospheric humidity.
2 days after the inoculation, the size of the infected areas on the leaves is evaluated. 0% means an efficacy which corresponds to that of the control, whereas an efficacy of 100% means that no infection is observed.

Echinochloa = experiment: Pre-emergence test, Echinochloa; details: 250 g of ai/ha, after three weeks, 100% = total destruction
Experimental: as §2, §3, §4, §5, §6

Phytophthora infestans = details: 750 g/ha; protective; tomato; 7 days after inoculation
Alopecurus = experiment: Pre-emergence test, Alopecurus; details: 250 g of ai/ha, after three weeks, 100% = total destruction
Experimental: as §2, §3, §4, §5, §6

[3] = system: caterpillars of the armyworm (Spodoptera frugiperda); experiment: Spodoptera frugiperda test; details: 500 ppm, cabbage leaves dipped
Experimental: as §7, with “Spodoptera frugiperda” for “Phaedon larvae”, “caterpillars” for “larvae”, “armyworm (Spodoptera frugiperda)” for “mustard beetle (Phaedon cochleariae)”, “caterpillars” for “beetle larvae”

Meloidogyne incognita = experiment: Meloidogyne test; details: 20 ppm, lettuce in sand, 100% = no galls
Experimental: Meloidogyne Test • Solvent: 7 parts by weight of dimethylformamide • Emulsifier: 2 parts by weight of alkylaryl polyglycol ether To produce a suitable preparation of active compound, 1 part by weight of active compound is mixed with the stated amounts of solvent and emulsifier, and the concentrate is diluted with water to the desired concentration. Containers are filled with sand, solution of active compound, Meloidogyne incognita egg/larvae suspension and lettuce seeds. The lettuce seeds germinate and the plants develop. On the roots, galls are formed. After the desired period of time, the nematicidal action is determined in % by the gall formation. 100% means that no galls have been formed; 0% means that the number of galls on the treated plants corresponds to that of the untreated control.

Sphaerotheca fuliginea = experiment: Sphaerotheca test (cucumber)/protective; details: 100 g/ha, protective, 7 days after inoculation
Experimental: Sphaerotheca Test (Cucumber)/Protective […] To produce a suitable preparation of active compound, 1 part by weight of active compound is mixed with the stated amounts of solvent and emulsifier, and the concentrate is diluted with water to the desired concentration. To test for protective activity, young plants are sprayed with the preparation of active compound at the stated application rate. After the spray coating has dried on, the plants are inoculated with an aqueous spore suspension of Sphaerotheca fuliginea The plants are then placed in a greenhouse at about 23° C. and a relative atmospheric humidity of about 70%.

Row | SMILES | % damage, Sugar beet (Sugar beet) | Kill rate in % after 7d [2] | % damage, Setaria (Setaria) | Kill rate in % after 7d (Tetranychus urticae) | % damage, Echinochloa (Echinochloa) | Efficacy in % (Phytophthora infestans) | % damage, Alopecurus (Alopecurus) | Kill rate in % after 7d [3] | further results
1 | Cc1ccc(-c2ccc(Cl)cc2)cc1C1(Cl)C(=O)CC2(CCCCC2)C1=O (stereo not drawn) [Ex. I-1-1] | 0% | 100% | 90% | 100% | 100% | – | – | – | Emax at 100 g/ha (Venturia inaequalis; Venturia inaequalis, 240 h, read-out: % efficacy): 100%; Kill rate in % after 6d [1]: 80%; Emax at 100 g/ha (Plasmopara viticola): 100%; Emax at 100 g/ha (Botrytis cinerea): 96%
2 | Cc1ccc(-c2ccc(Cl)cc2)cc1C1(Cl)C(=O)CC2(CCCC2)C1=O (stereo not drawn) [Ex. I-1-3] | – | – | – | – | – | 80% | – | – | –
3 | Cc1ccc(-c2ccc(Cl)cc2)cc1C1(Cl)C(=O)CC2(CCCCCC2)C1=O (stereo not drawn) [Ex. I-1-4] | – | – | – | – | – | 90% | – | – | –
4 | CC1(C)CC(=O)C(Cl)(c2cc(-c3ccc(Cl)cc3)ccc2Cl)C(=O)C1 [Ex. I-2-1] | 0% | 100% | 80% | 100% | 90% | 89% | 70% | 100% | % efficacy (Venturia inaequalis): 73%; Effect in % after 14d (nematicidal action by gall formation) (Meloidogyne incognita): 90%; % efficacy (Sphaerotheca fuliginea): 97%
5 | Cc1ccc(-c2ccc(Cl)cc2)cc1C1(Cl)C(=O)CC2(CCCC2)CC1=O [Ex. I-2-2] | 0% | 100% | 90% | 98% | 95% | – | 90% | 100% | –
6 | Cc1ccc(-c2ccc(Cl)cc2)cc1C1(Cl)C(=O)CC(C)(C)CC1=O [Ex. I-2-3] | 0% | 100% | 90% | 100% | 80% | – | 80% | 100% | % efficacy (Venturia inaequalis): 86%
7 | O=C1CC2(CCCC2)CC(=O)C1(Cl)c1cc(Br)ccc1Cl [Ex. I-2-4] | – | – | – | 80% | – | – | – | – | –
8 | O=C1CC2(CCCC2)CC(=O)C1(Cl)c1cc(-c2ccc(Cl)cc2)ccc1Cl [Ex. I-2-5] | – | 100% | – | 98% | – | – | – | 100% | –
9 | CC(C)C1CC(=O)C(Cl)(c2cc(Br)ccc2Cl)C(=O)C1 (stereo not drawn) [Ex. I-2-6] | – | – | – | – | – | – | – | – | Effect in % after 14d (nematicidal action by gall formation) (Meloidogyne incognita): 80%
